Where two headings read alike, the source gives them in different places.
What was measured:
CYPs = assay: Induction potency on CYPs in cryopreserved human hepatocytes, overall statement; type: in vitro ADME; conditions: cryopreserved human hepatocytes, 1, 3 and 10 μM; result in words
Experimental: The ability to induce CYP1A2 or CYP3A4 was calculated in the same manner described above.

CYP1A1 = conditions: human, hepatocytes
Experimental: (§1) Cryopreserved human hepatocytes (XenoTeck) were rapidly thawed at 37° C., and viable cells were obtained using Hepatocytes Isolation Kit (Nosan Corporation). After cells prepared were diluted with ice cold William's Medium E (10% FBS, +PSG) to give a concentration of 5×10^5 viable cells/mL, the cells were seeded onto a 48-well collagen-coated plate (BD Biosciences) at a concentration of 1×10^5 cells/cm^2 and cultured at 37° C. in 5% CO2 for 24 hours. Then, the medium was replaced with Hepato-STIM (registered trade mark: BD Biosciences) (+EGF, PSG, −FBS), and the cells were further cultured at 37° C. in 5% CO2 for 24 hours. […] The culture medium containing test compound, β-NF or Rif was replaced every 24 hours. Test compound, β-NF and Rif were each dissolved in dimethyl sulfoxide (DMSO: Wako Pure Chemical Industries, Ltd.), and culture medium containing test compound (final concentrations; 1, 3 and 10 μM), β-NF (final concentration; 10 μM) or Rif (final concentration; 10 μM) was prepared by adding them to Hepato-STIM(+EGF, PSG, −FBS), respectively. Final concentration of DMSO was set to be 0.1%, and culture medium containing 0.1% DMSO was used for control. After completion of the treatment, the cells were washed with PBS once, and total RNA was purified using Total RNA Purification Kit (Applied Biosystems). The purified total RNA was subjected to reverse transcription reaction using TaqMan Reverse Transcription Reagents (Applied Biosystems) to synthesize cDNA, where oligo dT was used as a primer. The reaction was carried out using Gene Amp PCR system 9700 at 25° C. for 10 minutes, followed by at 48° C. for 60 minutes. Then, reverse transcriptase was deactivated at 95° C. for 10 minutes. The levels of mRNA for CYP1A1 and GAPDH were quantified using SYBR Green PCR Core Reagents Kit (Applied Biosystems), and those for CYP1A2 and that of CYP3A4 were measured using Taqman PCR Core Reagents Kit (Applied Biosystems) and ABI Prism 7900 Sequence Detection System (Applied Biosystems).
(§2) * A cycle consisting of denaturation, annealing, and elongation reaction, was repeated 50 times.
(§3) The ability of a test compound to induce CYP1A1 was calculated as follows: Ability of a test compound to induce CYP1A1 (%)={[(amount of mRNA of CYP1A1 in test compound treated cells)/(amount of mRNA of GAPDH in test compound treated cells)]/[(amount of mRNA of CYP1A1 in control cells)/(amount of mRNA of GAPDH in control cells)]−1}/{[(amount of mRNA of CYP1A1 in positive control treated cells)/(amount of mRNA of GAPDH in positive control treated cells)]/[(amount of mRNA of CYP1A1 in control cells)/(amount of mRNA of GAPDH in control cells)]−1}×100

CYP1A2 = conditions: human, hepatocytes
Experimental: as §1, §2, §3

CYP3A4 = assay: Induction potency of drug metabolizing enzyme (CYP) using cryopreserved human hepatocytes, CYP3A4 mRNA; conditions: approximately 48 hours, mRNA normalised to GAPDH, positive control rifampicin 10 μM
Experimental: as §1, §2, §3

| SMILES | Induction Ability compared to positive control (%) CYP1A1 (CYP1A1; 1 μM) | Induction Ability compared to positive control (%) CYP1A1 (CYP1A1; 3 μM) | Induction Ability compared to positive control (%) CYP1A1 (CYP1A1; 10 μM) | Induction Ability compared to positive control (%) CYP1A2 (CYP1A2; 1 μM) | Induction Ability compared to positive control (%) CYP1A2 (CYP1A2; 3 μM) | Induction Ability compared to positive control (%) CYP1A2 (CYP1A2; 10 μM) | Induction Ability compared to positive control (%) CYP3A4 (CYP3A4; test compound 1 μM) | Induction Ability compared to positive control (%) CYP3A4 (CYP3A4; test compound 3 μM) | Induction Ability compared to positive control (%) CYP3A4 (CYP3A4; test compound 10 μM) | induction potency on CYPs (CYPs) |
| --- | --- | --- | --- | --- | --- | --- | --- | --- | --- | --- |
| CNc1nc(-c2cccc(NC(=O)c3ccccc3)c2)c2cc(OC)c(OC)cc2n1 [Comparative example, 4-(3-benzoylaminophenyl)-6,7-dimethoxy-2-methylaminoquinalozine, reference compound] | 2.1% | 18.5% | 51.9% | 7.2% | 34.3% | 35.0% | 1.6% | 10.8% | 17.0% | induction potency on CYPs was observed |
| CCCOC(=O)c1cccc(C(=O)Nc2cccc(-c3nc(NC)nc4cc(OC)c(OC)cc34)c2)c1 [Example 14, propyl N-[3-(6,7-dimethoxy-2-methylaminoquinazolin-4-yl)phenyl]isophthalic acid] | 0.2% | 0.3% | 0.7% | 1.2% | 3.0% | 1.8% | 0.7% | −0.1% | −1.5% |  |
| CNC(=O)c1cccc(C(=O)Nc2cccc(-c3nc(NC)nc4cc(OC)c(OC)cc34)c2)c1 [Example 16, N-[3-(6,7-dimethoxy-2-methylaminoquinazolin-4-yl)phenyl]-N′-methylisophthalamide] | 0.0% | 0.3% | 1.0% | 0.2% | 3.9% | 1.2% | −0.7% | −0.3% | 2.7% |  |
| CNc1nc(-c2cccc(NC(=O)c3cccc(C(=O)OCCOC)c3)c2)c2cc(OC)c(OC)cc2n1 [Example 21, N-[3-(6,7-dimethoxy-2-methylaminoquinazolin-4-yl)phenyl]isophthalamic acid 2-methoxyethyl ester] | 0.0% | 0.0% | 0.1% | 0.6% | −0.3% | 0.4% | −1.2% | −1.6% | −2.0% |  |

Now from value to compound, other results behind:

| Induction Ability compared to positive control (%) CYP1A1 (CYP1A1; 1 μM) | Induction Ability compared to positive control (%) CYP1A1 (CYP1A1; 3 μM) | Induction Ability compared to positive control (%) CYP1A1 (CYP1A1; 10 μM) | Induction Ability compared to positive control (%) CYP1A2 (CYP1A2; 1 μM) | Induction Ability compared to positive control (%) CYP1A2 (CYP1A2; 3 μM) | Induction Ability compared to positive control (%) CYP1A2 (CYP1A2; 10 μM) | Induction Ability compared to positive control (%) CYP3A4 (CYP3A4; test compound 1 μM) | Induction Ability compared to positive control (%) CYP3A4 (CYP3A4; test compound 3 μM) | Induction Ability compared to positive control (%) CYP3A4 (CYP3A4; test compound 10 μM) | SMILES | induction potency on CYPs (CYPs) |
| --- | --- | --- | --- | --- | --- | --- | --- | --- | --- | --- |
| 0.1% | 0.4% | 1.5% | −1.1% | 0.6% | 6.1% | −5.6% | −6.1% | 0.1% | CCOC(=O)c1ccc(C(=O)Nc2cccc(-c3nc(NC)nc4cc(OC)c(OC)cc34)c2)cc1 [Example 4, ethyl N-[3-(6,7-dimethoxy-2-methylaminoquinazolin-4-yl)phenyl]terephthalamic acid] |  |
| 0.0% | 0.0% | 0.0% | −2.0% | −1.3% | 0.5% | −6.9% | −6.2% | −2.0% | CNC(=O)c1ccc(C(=O)Nc2cccc(-c3nc(NC)nc4cc(OC)c(OC)cc34)c2)cc1 [Example 5, N-[3-(6,7-dimethoxy-2-methylaminoquinazolin-4-yl)phenyl]-N′-methylterephthalamide] |  |
| 0.2% | 1.8% | 5.7% | 0.5% | 1.5% | 3.1% | −6.6% | −9.8% | −11.9% | CNc1nc(-c2cccc(NC(=O)c3ccc(C(=O)OC(C)C)cc3)c2)c2cc(OC)c(OC)cc2n1 [Example 7, isopropyl N-[3-(6,7-dimethoxy-2-methylaminoquinazolin-4-yl)phenyl]terephthalamic acid] |  |
| 0.1% | 0.1% | 0.8% | −1.7% | −1.6% | −1.2% | −2.0% | −2.1% | −2.2% | CNc1nc(-c2cccc(NC(=O)c3ccc(C(=O)OCCOC)cc3)c2)c2cc(OC)c(OC)cc2n1 [Example 20, N-[3-(6,7-dimethoxy-2-methylaminoquinazolin-4-yl)phenyl]terephthalamic acid 2-methoxyethyl ester] |  |
